logD data for 5 compounds are collected here from ChEMBL document CHEMBL4673396, “Structural Basis for Targeting the Folded P-Loop Conformation of c-MET” (ACS Med Chem Lett, 2021).

The nature of the data set: Lipophilicity, logD of the compound in octanol and water at pH 7.4 by shake-flask method. It is filed as physicochemical.

In turn, `c1ccc(Cc2c[nH]c3ncc(-c4cnn(C5CCNCC5)c4)cc23)cc1` returned a logD of 2.31.

As for `Fc1cccc(Cc2c[nH]c3ncc(-c4cnn(C5CCNCC5)c4)cc23)c1`, the logD amounted to 2.4. This logD and that of the compound before are within 0.2 log units of each other.

With `Fc1ccc(Cc2c[nH]c3ncc(-c4cnn(C5CCNCC5)c4)cc23)cc1`, the logD is given as 2.4.

Compound `O=C1NCc2c(-c3cnc4[nH]cc(Cc5ccccc5)c4c3)c[nH]c21` returned a logD of 4.

For the compound `Fc1ccccc1Cc1c[nH]c2ncc(-c3cnn(C4CCNCC4)c3)cc12`, the logD was found to be 2.5.

As usually defined, the logD is lipophilicity at a set pH, counting ionised and neutral species. A higher logD goes with a more lipophilic compound.
